Where a name gives a salt, the structure may show the parent alone.
Legend:
[1] = tested on: epididymal white adipose tissue adipocytes; test: Lipolytic activity in vitro on white adipose tissue (WAT) adipocytes, release of free fatty acids; assay type: cell-based; conditions: Rattus norvegicus, Adipocyte; compound 10^-6 M; per cent of noradrenaline effect at 5.10^-6 M (maximal effect); 37° C., 1 hour, pH 7.4
Description: (§1) More particularly, the compounds of the present invention show a remarkable lipolytic activity in mammals in the tests predictive of said activity, such as in the test "in vitro" on the brown adipose tissue (BAT) and on the white adipose tissue (WAT) and in the test "in vivo", based upon the thermogenesis in the rat. More particularly, in the test "in vitro" male rats, each weighing 100-125 g, are sacrificed and the adipocytes of the interscapular brown adipose tissue and those of the epididymal white adipose tissue are dissected out, according to the method of M. Rodbell, J. Biol. Chem. 1967, 242, 5744-5750 and separately treated as follows. The adipocytes are incubated with the compound to be tested at a temperature of 37° C. for an hour in Phosphate Krebs-Ringer-(4%) albumine medium at pH 7.4. The long chain fatty acids that are released in the medium are determinated by the method reported by D.I. Trout and al., J. Lip. Res. 1960, 1, 199-202, and compared with the amount of the triglycerides present in the adipocytes, determined by the method of E. Van Handel and al., J. Lab. Clin. Med., 1957, 50, 152-157. The results obtained for representative compounds of the present invention are shown in TABLE I, where the lipolytic activity of the compounds at the dose of 10^-6 M, measured as release of free fatty acids (μEq), is expressed as per cent of the noradrenaline effect at the dose of 5.10^-6 M (maximal effect on both BAT and WAT).

[2] = tested on: adipocytes of the interscapular brown adipose tissue; test: Lipolytic activity in vitro on brown adipose tissue (BAT) adipocytes, release of free fatty acids; assay type: cell-based; conditions: Rattus norvegicus, Adipocyte; compound 10^-6 M; per cent of noradrenaline effect at 5.10^-6 M (maximal effect); 37° C., 1 hour, pH 7.4
Description: as §1

interscapular BAT = test: Activity on brown adipose tissue thermogenesis in vivo in anaesthetized rats; parameters: species or system rat; conditions: 7.5 mg/kg intraperitoneally
Protocol: In the test "in vivo", the activity on brown adipose tissue thermogenesis is determined by the method reported by P. J. Wellman, Research Communication in Chemical Pathology and Pharmacology 1983, 41, 173-176.
The anaesthesied rats are treated intraperitoneally with the vehicle and 7.5 mg/kg of the compound to be tested. The interscapular BAT and rectal temperatures are recorded 10, 20 and 30 minutes after the injection.

mice = test: Acute toxicity in mice; assay type: in vivo, mouse; conditions: oral dose up to 200 mg/kg

SMILES | activation at 1 µM [1] [%] | activation at 1 µM [2] [%] | ΔT, average difference between interscapular BAT temperature and rectal temperature (interscapular BAT; 10' after injection, anaesthetized rats (vehicle 0.06 ± 0.04)) [°C] | ΔT, average difference between interscapular BAT temperature and rectal temperature (interscapular BAT; 20' after injection, anaesthetized rats (vehicle 0.10 ± 0.04)) [°C] | ΔT, average difference between interscapular BAT temperature and rectal temperature (interscapular BAT; 30' after injection, anaesthetized rats (vehicle 0.14 ± 0.05)) [°C] | mortality (mice)
Oc1ccc2c(c1)CC(NC[C@H](O)c1ccccc1)CC2 (single isomer, unassigned; (+)) [SR 58375A, hydrochloride] | 97 | 100 |  |  |  | 
COc1ccc2c(c1)CC(NCC(O)c1ccccc1)CC2 (stereo not shown) [SR 58279A, 2-[(7-methoxy-1,2,3,4-tetrahydronaphth-2-yl)amino]-1-phenylethanol hydrochloride] | 30 | 50 |  |  |  | 
Oc1ccc2c(c1)CC(NCC(O)c1ccccc1)CC2 (stereo not shown) [SR 58306, 2-[(7-hydroxy-1,2,3,4-tetrahydronaphth-2-yl)amino]-1-phenylethanol] |  |  | 0.60 ± 0.10 | 0.90 ± 0.10 | 0.92 ± 0.08 | 
Oc1ccc2c(c1)CC(NCC(O)c1ccccc1)CC2 (stereo not shown) [SR 58306A, 2-[(7-hydroxy-1,2,3,4-tetrahydronaphth-2-yl)amino]-1-phenylethanol hydrochloride] | 78 | 80 |  |  |  | 
COc1ccc2c(c1)CC(NCC(O)c1cccc(Cl)c1)CC2 (stereo not shown) [SR 58338A, 2-[(7-methoxy-1,2,3,4-tetrahydronaphth-2-yl)amino]-1-(3-chloropheny)ethanol hydrochloride] | 89 | 77 |  |  |  | 
Cl.Oc1ccc2c(c1)CC(NCC(O)c1cccc(Cl)c1)CC2 (stereo not shown) [SR 58339A, 2-[(7-hydroxy-1,2,3,4-tetrahydronaphth-2-yl)amino]-1-(3-chlorophenyl)-ethanol hydrochloride] | 92 | 103 |  |  |  | do not cause any mortality
Oc1ccc2c(c1)CC(NC[C@H](O)c1ccccc1)CC2 (stereo partly drawn) [SR 58365A, (1R,2'RS)-2-[(7-hydroxy-1,2,3,4-tetrahydronaphth-2-yl)amino]-1-phenylethanol hydrochloride] | 78 | 96 |  |  |  | 
CCOC(=O)COc1ccc2c(c1)CC(NCC(O)c1cccc(Cl)c1)CC2.O=C(O)C(=O)O (stereo not shown) [SR 58380A, 2-[(7-carbethoxymethoxy-1,2,3,4-tetrahydronaphth-2-yl)amino]-1-(3-chlorophenyl)ethanol oxalate] | 90 | 96 |  |  |  | do not cause any mortality

— patent US4707497A, “Phenylethanolaminotetralines, a process for their preparation and pharmaceutical compositions containing them” (Sanofi, priority 1985, dated 1987)
